# Laboratory results published in US20260000685A1, “PHARMACEUTICAL COMPOSITION FOR PREVENTING OR TREATING DEGENERATIVE BRAIN DISEASES, COMPRISING CANNABINOIDS AS ACTIVE INGREDIENT, AND USES THEREOF” (NEOCANNBIO CO., LTD., priority 2022, published 2026).
# Key:
# [1] = test system: BDNF (brain-derived neurotrophic factor); test: Western blot of BDNF in hippocampal tissues of animal model; assay type: in vivo, ICR mice; details: day 19; compared to Aβ1-42 treated group; FIG. 17
# Procedure: (§1) To conduct Western blotting, tissues were homogenized in radioimmunoprecipitation assay buffer (Cell Signaling) to acquire tissue lysates. Tissue protein concentrations were determined using the Bio-Rad protein assay (Bio-Rad, Hercules, CA, USA), and Western blot analysis was conducted using 80-120 μg of protein. Next, the Western blotting samples prepared using the proteins were separated using 12% SDS-PAGE and transferred to a polyvinylidene fluoride membrane (PVDF) (Merck Millipore, Burlington, MA, USA; 0.4 μm). The PVDF was blocked with tris-buffered saline including 5% bovine serum albumin and Tween-20, and incubated with primary antibodies overnight at 4° C. After primary antibody incubation, the samples were incubated with HRP-conjugated secondary antibody (Sigma; 1:5000) for 1 hour at room temperature, and immunodetection was conducted using an enhanced chemiluminescence detection kit (GE Healthcare, Chicago, IL, USA).
# (§2) Specifically, hippocampal tissues were acquired on day 19 from the animal models created in Example 7 above (PBS treated group, Aβ1-42 treated group, CBDA treated group, and THCA treated group), and Western blot analysis was conducted on the hippocampal tissues to evaluate the expression levels of BDNF, p-CREB, and p-TrKB.
# [2] = test system: Alzheimer's animal model (Aβ1-42 treated mice); test: Morris water maze test in Aβ1-42 Alzheimer's animal model; assay type: in vivo, ICR mice; details: compared to mice treated only with Aβ1-42; for learning ability (finding submerged platform during training session): CBDA 6.25 μM or THCA 12.5 μM, 3 μL/mouse into hippocampus, FIGS. 11 and 12; for time spent in the target quadrant (probe test) / time spent in the platform area (probe test) / number of times crossed the platform area (probe test): probe test on the 5th day; for time spent in the target quadrant (probe test): FIG. 13A; for time spent in the platform area (probe test): FIG. 13B; for number of times crossed the platform area (probe test): FIG. 13C
# Procedure: Female ICR mice (8 weeks old) used in the experiment were purchased from Coretech (Pyeongtaek, Korea). Mice were housed in the animal care facility of the Korea Institute of Science and Technology (KIST) (temperature 22±2° C., humidity 40-60%, 12-hour light/dark cycle). Mice were housed in an environment with free access to food and water. All animal experiments were conducted in accordance with the protocol approval of the Animal Ethics Committee of our institution.
# Next, to create an animal model, mice were randomly selected and divided into four groups as follows: PBS treated group (PBS+PBS), Aβ1-42 treated group (Aβ1-42 +PBS) (Alzheimer's animal model), CBDA treated group (Δβ1-42+CBDA (6.25 µM, 3 μL/mouse)), and THCA treated group (Δβ1-42+THCA (12.5 μM, 3 μL/mouse)).
# After anesthetizing the isolated mice by intraperitoneal (i.p.) injection of avertin (250 mg/kg), the mice were fixed in a stereotaxic apparatus, and CBDA, THCA, Aβ1-42, or PBS (3 μl/15 min/mouse) were gradually delivered to the hippocampus using a Hamilton syringe (coordinates of bregma: mediolateral (ML)=1.30 mm, anteroposterior (AP)=−2.00 mm, dorsoventral=−2.20 mm).
# Specifically, a circular tank (diameter 90 cm, height 50 cm, water temperature 22 ±2° C.) was used for the test, and the tank consisted of four quadrants filled with water. An escape platform (diameter 6 cm, height 29 cm) was submerged 1 cm below the water surface in the center of one of the four quadrants. Experimental mice were trained for 4 days to learn and memorize visual cues placed outside the tank indicating the platform location. The swimming paths of the experimental mice were recorded with a camera connected to a video recorder and path tracking software (EthoVision; Noldus Information Technology, Wageningen, The Netherlands). Four tests were conducted daily during the 4-day training period. During each trial, the experimental mice were allowed 60 seconds to find the hidden platform and an additional 30 seconds to remain on the platform. […] The average time it took each experimental mouse to find the platform (average escape latency) was recorded. Probe tests were conducted 4 days later in the same manner without the platform. Each experimental mouse was allowed to move freely for 60 seconds, which was recorded. Videos were analyzed using tracking software (EthoVision; Noldus Information Technology, Wageningen, The Netherlands) to calculate the time spent in the target quadrant area and the number of crossings in the platform area.
# amyloid beta (Aβ) [3] = test: Western blot of Aβ in hippocampal tissues of animal model; assay type: in vivo, ICR mice; details: day 19; compared to Aβ1-42 treated group; FIG. 15
# Procedure: as §1
# as §2, with “APP (Amyloid Precursor Protein), polymeric Aβ,” for “BDNF, p-CREB,”, “oligomeric Aβ.” for “p-TrKB.”
# amyloid beta (Aβ) [4] = test: Western blotting of Aβ expression in Aβ1-42-treated primary neuronal cells; assay type: cell-based, ICR mice; details: with Aβ1-42 (5 μM), 24 hours; for expression level of oligomeric Aβ / expression level of polymeric Aβ: CBDA (6 μM) or THCA (5 μM), FIG. 6; for expression level of AB: compared to Aβ1-42 alone, FIG. 5
# Procedure: Specifically, primary neuronal cells derived from ICR mice were cultured for 6 days, and then treated with CBDA, THCA, THC, or CBN compounds while treating with Aβ1-42 (5 μM), and treated together for 24 hours. Next, Western blotting was conducted to confirm the expression levels of APP (Amyloid Precursor Protein), polymeric Aβ, and oligomeric AB in the cells.
# as §1
# [5] = test system: p-TrkB (Tyrosine receptor kinase B); test: Western blot of p-TrkB in hippocampal tissues of animal model; assay type: in vivo, ICR mice; details: day 19; compared to Aβ1-42 treated group; FIG. 17
# Procedure: as §1, §2
# [6] = test system: phosphorylated tau (p-Tau); test: Western blot of Tau/p-Tau in hippocampal tissues of animal model; assay type: in vivo, ICR mice; details: day 19; compared to Aβ1-42 treated group; FIG. 16
# Procedure: as §1
# as §2, with “Tau” for “BDNF, p-CREB,”, “phosphorylated Tau (p-Tau).” for “p-TrKB.”
smiles,measurement,setting,value
"CCCCCc1cc2c(c(O)c1C(=O)O)[C@@H]1C=C(C)CC[C@H]1C(C)(C)O2 [THCA, (6aR, 10aR)-1-Hydroxy-6,6,9-trimethyl-3-pentyl-6a,7,8,10a-tetrahydro-6H-benzo[c]chromene-2-carboxylic acid]",expression level of BDNF in hippocampal tissues,[1],significantly increased
same,learning ability (finding submerged platform during training session),[2],significantly enhanced
same,time spent in the target quadrant (probe test),[2],spent more time
same,time spent in the platform area (probe test),[2],spent more time
same,number of times crossed the platform area (probe test),[2],increased
same,expression level of Aβ in hippocampal tissues,amyloid beta (Aβ) [3],significantly reduced
same,expression level of oligomeric Aβ,amyloid beta (Aβ) [4],significantly reduced
same,expression level of polymeric Aβ,amyloid beta (Aβ) [4],significantly reduced
same,expression level of AB,amyloid beta (Aβ) [4],significantly reduced
same,expression level of p-TrKB in hippocampal tissues,[5],significantly increased
same,expression level of p-Tau in hippocampal tissues,[6],significantly reduced
same,phosphorylation level of p-Tau in hippocampal tissues,[6],significantly reduced
C=C(C)[C@@H]1CCC(C)=C[C@H]1c1c(O)cc(CCCCC)c(C(=O)O)c1O [CBDA],expression level of BDNF in hippocampal tissues,[1],significantly increased
same,learning ability (finding submerged platform during training session),[2],significantly enhanced
same,time spent in the target quadrant (probe test),[2],spent more time
same,time spent in the platform area (probe test),[2],spent more time
same,number of times crossed the platform area (probe test),[2],increased
same,expression level of Aβ in hippocampal tissues,amyloid beta (Aβ) [3],significantly reduced
same,expression level of oligomeric Aβ,amyloid beta (Aβ) [4],significantly reduced
same,expression level of polymeric Aβ,amyloid beta (Aβ) [4],significantly reduced
same,expression level of AB,amyloid beta (Aβ) [4],significantly reduced
same,expression level of p-TrKB in hippocampal tissues,[5],significantly increased
same,expression level of p-Tau in hippocampal tissues,[6],significantly reduced
same,phosphorylation level of p-Tau in hippocampal tissues,[6],significantly reduced
